Test results: patent US20220135564A1, “DEUTERATED MITRAGYNINE ANALOGS AS SAFER OPIOID MODULATORS IN THE MITRAGYNINE CLASS” (The Trustees of Columbia University in the City of New York, priority 2019, published 2022)

Experiments:
[1] = Stability and metabolite formation in dog plasma; format: in vitro ADME; conditions: 1 μM, 37° C., over 120 minutes
Protocol: Stability and Metabolite Formation in Dog Plasma. Beagle dog plasma with Na citrate (Innovatine Research, Inc., lot #IBG-NaCitrate-28323) was used in this study. Plasma incubations were carried out in 5 aliquots of 70 μL each (one for each time point), in duplicate. Test compounds (1 μM, final DMSO concentration 1%) were incubated at 37° C. with shaking at 100 rpm. Five time points over 120 minutes were analyzed. The reactions were stopped by adding 400 μL of acetonitrile-methanol mixture (1:1) with subsequent plasma protein sedimentation by centrifugation at 5500 rpm for 5 minutes.

[2] = Simulated gastric fluid (SGF) incubations monitored by NMR; format: physicochemical; conditions: deuterated SGF, 1.3 mg/mL, room temperature
Protocol: SGF Incubations. Deuterated SGF (to permit direct NMR monitoring of the reactions) was prepared by combining NaCl (10 mg) and 37% DCl in D2O (35 μL) and diluting up to a final volume of 5.0 mL with D2O. Solutions of 7-OH and 3-d-7-OH in deuterated SGF were prepared at a concentration of 1.3 mg/mL containing N-methyl-2-pyrrolidone (NMP) as an internal standard (IS) at a concentration of 3.33 μL/mL and the reaction mixtures were left to stand at room temperature. NMR spectra were recorded on a Bruker 500 MHz instrument at the following time points: 35, 65, 125, 245, 365, and 1440 minutes (relative to time of solution mixing). Chemical shifts were referenced to the D2O residual solvent peak at 4.79 ppm. Decomposition of parent compounds was quantified by the peak area ratio of a doublet at 6.63 ppm (corresponding to 7-OH and 3-d-7-OH) and a singlet at 2.84 ppm (corresponding to IS). These ratios, calculated at each time point, were normalized to the ratio determined at 35 minutes to obtain values as percent remaining (100% at 35 minutes). Concentration of DHM was determined at each time point by comparing the peak areas of a doublet at 6.70 ppm (corresponding to DHM) and a singlet at 2.84 ppm (corresponding to IS) and using the known concentration of internal standard (3.33 μL/mL=34.5 mM). The concentration of DHM formed from 3-d-7-OH was below the lower limit of quantitation of -0.1 mM at the 35-, 65-, and 125-minute time points.

[3] = Mouse brain homogenate (MBH) stability and metabolite formation; format: in vitro ADME; conditions: 2 μM, 37° C., over 120 minutes
Protocol: MBH Preparation. Male BALB/c mice (12-14 weeks old) were housed in polypropylene cages with free access to standard commercial food pellets and tap water. Animals were sacrificed by cervical dislocation immediately prior to brain homogenate preparation. Brains from 10 mice were fragmented into small pieces and homogenized in ice-cold artificial cerebrospinal fluid solution (ACSF: 126 mM NaCl, 2.68 mM KCl, 1 mM Na2HPO4, 0.88 mM MgSO4, 22 mM NaHCO3, 1.45 mM CaCl2, 10 mM HEPES, 11 mM D-glucose, pH 7.4) using a TH-01 OMNI homogenizer. Samples were centrifuged at 1500×g for 10 minutes. Supernatants were decanted and collected. Total protein concentration was determined by Bradford assay and equaled 17.7 mg/mL. The obtained brain homogenate was flash-frozen in liquid nitrogen. Aliquots were stored at −70° C. until use.
MBH Stability and Metabolite Formation. […] The incubation medium consisted of artificial cerebrospinal fluid solution (ACSF: 126 mM NaCl, 2.68 mM KCl, 1 mM Na2HPO4, 0.88 mM MgSO4, 22 mM NaHCO3, 1.45 mM CaCl2, 10 mM HEPES, 11 mM D-glucose, pH 7.4) with 2 mg of brain protein per mL. Test compounds (2 μM, final solvent concentration 1%) were incubated with brain homogenate at 37° C., shaking at 100 rpm. Incubations were performed in duplicate. Six time points over 120 minutes were analyzed.

[4] = system: Male Sprague-Dawley rats; test: Rat tail-flick assay (analgesic activity); format: in vivo; conditions: oral gavage, 50° C. hot-water bath, 30 minutes after administration
Protocol: Animals. Male Sprague-Dawley rats, aged 7-8 weeks, were used in experiments. Animals were housed under controlled temperatures and 12-hour light/dark cycles (lights on at 06:00-18:00 h), with ad libitum food and water. The study was approved by the Institutional Animal Care and Use Committee (IACUC) at WuXi AppTec (Shanghai). WuXi's animal facilities and IACUC are fully accredited by the Association for Assessment and Accreditation of Laboratory Animal Care International (AAALAC). All efforts were made to minimize animal suffering.
Drugs and Drug Administration. Drugs were prepared as described above and administered by oral gavage at a volume of 5 mL/kg in de-ionized water acidified with acetic acid.
Tail-Flick. Analgesic activity was assessed in the tail-flick assay 30 minutes (peak effect) after administration of vehicle and each dose of drug (n=8 per treatment). Animals were tested for their latency to withdraw their tails from a hot water bath maintained at 50° C. with a room temperature of 22° C. A cutoff time of 7 seconds was used to prevent tissue damage. Data were analyzed as percent maximal effect, % MPE, which was calculated according to the formula: % MPE=[(observed latency−vehicle latency)/(maximal latency−vehicle latency)]×100. Dose-response curves were fit by nonlinear regression (GraphPad Prism, La Jolla, Calif.).

[5] = HLM metabolite formation; conditions: 2 μM, 37° C., over 40 minutes
Protocol: HLM Metabolite Formation. Pooled HLM from 50 adult male and female donors (XenoTech H0630, lot 1610016) were used. Microsomal incubations of mitragynine and 3-DM were carried out in 96-well plates in 5 aliquots of 40 μL each (one for each time point). Liver microsomal incubation medium contained PBS (100 mM, pH 7.4), MgCl2 (3.3 mM), NADPH (3 mM), glucose-6-phosphate (5.3 mM), glucose-6-phosphate dehydrogenase (0.67 units/mL) with 0.42 mg of liver microsomal protein per ml. Control incubations were performed replacing the NADPH-cofactor system with PBS. Test compounds (2 μM, final solvent concentration 1.6%) were incubated with microsomes at 37° C., shaking at 100 rpm. Incubations were performed in duplicate. Five time points over 40 minutes were analyzed. The reactions were stopped by adding 8 volumes of 90% acetonitrile-water to incubation aliquots, followed by protein sedimentation by centrifugation at 5500 rpm for 3 minutes. Supernatants were analyzed for parent compound remaining and metabolites DHM (both mitragynine and 3-DM incubations), 7-OH (mitragynine incubations), and 3-d-7-OH (3-DM incubations), using a fit-for-purpose liquid chromatography-tandem mass spectrometry (LC-MS/MS) method, with authentic samples of each analyte used for calibration and identification.

[6] = Pharmacokinetics in C57BL/6 mice, plasma and brain metabolite concentrations; conditions: male C57BL/6 mice, 10 mg/kg s.c., 0.083-24 h
Protocol: Animals. Healthy male C57BL/6 mice (8-12 weeks old) weighing between 19 to 28 g were procured from Global, India. Four mice were housed in each cage. Temperature and humidity were maintained at 22±3° C. and 30-70%, respectively and illumination was controlled on a 12-h light/dark cycle. Temperature and humidity were recorded by an auto-controlled data logger system. All animals were provided a laboratory rodent diet (Envigo Research Private Ltd, Hyderabad, India) and reverse osmosis water treated with ultraviolet light was provided ad libitum.
Drugs. Mitragynine and 3-DM were dissolved in normal saline made slightly acidic (˜pH 3) with 1M aqueous HCl. Drugs were administered subcutaneously at a volume of 10 mL/kg body weight and a dose of 10 mg/kg.
Pharmacokinetics. Blood samples (approximately 60 μL) were collected under light isoflurane anesthesia from the retro orbital plexus at 0.083, 0.25, 0.5, 1, 2, 4, 8 and 24 h (4 animals per time point). Plasma samples were separated by centrifugation of whole blood and stored below −70° C. until bioanalysis. Immediately after collection of blood, mice were euthanized and brain samples were collected at 0.083, 0.25, 0.5, 1, 2, 4, 8 and 24 h (4 animals per time point). Brain samples were homogenized using ice-cold phosphate buffered saline (pH 7.4) and homogenates were stored below −70° C. until analysis. Total homogenate volume was three times the tissue weight. Aliquots (25 μL) of each study sample (dilution factor applied for several samples) or spiked calibration standard were added to individual micro-centrifuge tubes followed by 100 μL of internal standard solution prepared in acetonitrile (Glipizide, 500 ng/mL; except for blank, where 100 μL of acetonitrile was added). Samples were vortexed for 5 minutes and then centrifuged for 5 minutes at a speed of 4000 rpm at 4° C. Following centrifugation, supernatants were analyzed for metabolites DHM (both mitragynine and 3-DM treatment) and 7-OH (mitragynine treatment) or 3-d-7-OH (3-DM treatment), using a fit-for-purpose liquid chromatography-tandem mass spectrometry (LC-MS/MS) method, with authentic samples of each analyte used for calibration and identification.

[7] = MS9 metabolite formation (M1, M4, M6) from mitragynine and 3-DM; format: in vitro ADME, mouse; conditions: 2 μM, 37° C., over 60 minutes, MS peak area, compared to mitragynine
Protocol: MS9 Metabolite Formation. Liver S9 fraction pooled from male CD-1 mice was used. […] Control incubations were performed replacing the cofactor system with phosphate buffer. […] Incubations were performed in duplicate. Five time points over 60 minutes were analyzed. […] Supernatants were analyzed for remaining parent compound and metabolites by liquid chromatography-tandem mass spectrometry (LC-MS/MS).

[8] = Pharmacokinetics in 129S1 mice, brain metabolite concentrations at 15 minutes; conditions: male 129S1 mice, 10 mg/kg s.c.
[9] = 35-1440 minutes, compared to 7-OH
[10] = compared to 7-OH from mitragynine

CC[C@@H]1CN2CC[C@@]3(O)C(=Nc4cccc(OC)c43)[C@@H]2C[C@@H]1/C(=C\OC)C(=O)OC [7-OH, 7-Hydroxymitragynine, reference compound]
decomposition of parent compound in dog plasma [1]: unstable

[2H][C@@]12C[C@H](/C(=C\OC)C(=O)OC)[C@H](CC)CN1CC[C@@]1(O)C2=Nc2cccc(OC)c21 [3-d-7-OH, 3-Deutero-7-hydroxymitragynine]
decomposition of parent compound in SGF [2, 9]: did not slow decomposition
formation of toxic metabolite DHM in SGF [2, 9]: greatly attenuated
concentration of DHM formed in SGF ([2]; 35-, 65-, and 125-minute time points, below lower limit of quantitation): < -100 µM
decomposition of parent compound in dog plasma [1]: attenuated the decomposition
formation of DHM in dog plasma ([1]; compared to 7-OH): attenuated formation of DHM

CC[C@@H]1CN2CCc3c([nH]c4cccc(OC)c34)[C@@H]2C[C@@H]1/C(=C\OC)C(=O)OC [Mitragynine]
decomposition of parent compound in MBH [3]: unstable
analgesic effect in the tail-flick assay [4]: dose-dependent analgesic effects

[2H][C@@]12C[C@H](/C(=C\OC)C(=O)OC)[C@H](CC)CN1CCc1c2[nH]c2cccc(OC)c12 [3-DM, 3-Deuteromitragynine]
formation of 7-hydroxy active metabolite (3-d-7-OH) in HLMs [5, 10]: little effect
concentration of toxic metabolite DHM formed in HLMs ([5]; compared to mitragynine): greatly attenuated
decomposition of parent compound in MBH [3]: attenuated the decomposition
formation of DHM in MBH ([3]; compared to mitragynine): attenuated formation of DHM
brain concentration of active metabolite 3-d-7-OH [6, 10]: no effect
plasma concentration of active metabolite 3-d-7-OH [6, 10]: no effect
brain concentration of DHM ([6]; compared to mitragynine): greatly attenuated
plasma concentration of DHM ([6]; compared to mitragynine): greatly attenuated
analgesic effect in the tail-flick assay [4]: dose-dependent analgesic effects
formation of metabolite M1 in MS9 [7]: greatly attenuated
formation of metabolite M4 in MS9 [7]: greatly attenuated
formation of metabolite M6 in MS9 [7]: greatly attenuated
brain concentration of 7-hydroxy active metabolite (3-d-7-OH) [8, 10]: little effect
brain concentration of DHM ([8]; compared to mitragynine): greatly attenuated
